Entries after “also recorded” stand apart in the source; their conditions may differ. Ends that are not written are not given here.
Experiments:
HDPSCs = test: ALP and toluidine blue staining of HDPSCs cultured on scaffolds; type: cell-based, human; conditions: isolated HDPSCs on scaffolds
Protocol: (§1) The HDPSCs were isolated from human dental pulp tissues and cultured on ABM and ABM-P-15 scaffolds in media. The cultured cells on the scaffolds were analysed by live/dead fluorescent markers, histological staining (ALP, Alizalin Red, Toluidine blue), confocal microscopy and scanning electron microscopy. The effect of P-15 on HDPSCs BMP-2 production was confirmed by a well developed promyoblast induction assay via co-culturing of C2C12 promyoblasts and HDPSCs on ABM or ABM-P-15. […] Cell outgrowth from the explants was assessed by live/dead fluorescent markers, histological staining (ALP), confocal microscope and scanning electron microscopy.

[1] = system: human dental pulp explants; test: Cell outgrowth from human dental pulp explants cultured with scaffolds (live/dead markers, confocal microscopy, SEM); type: cell-based; conditions: fluorescence, confocal or SEM images
Protocol: as §1
Teeth were obtained with patients' informed consent following project approval by the NHS local ethical committee (COREC: 06/Q1206/165). Human dental pulp was extracted from sound intact teeth, which had been surgically removed at the Leeds Dental Institute for clinical reasons. Each tooth was washed within a Class II hood and cracked in a bench vice. The dental pulp tissues were harvested and washed with 1×PBS and minced into small pieces (1×2×2 mm^3) which were kept in the PBS and ready for use.
PepGen P-15 (ABM-P15) and/or Osteo-Graf/N-300 (ABM alone) were provided by Cerapedics Inc. (Lakewood, Colo.) in a particulate form. 50 mg of ABM-P-15 and ABM alone were transferred into the 48 well plates and sterilized under UV radiation for 30 minutes. […]

Sequence: GTPGPQGIAGQRGVV [P-15, collagen mimetic, 15 amino acid residues of the α1(I) chain of collagen]
- HDPSCs differentiation along the osteogenic lineage (ALP expression) (HDPSCs): promoted the HDPSCs differentiation along the osteogenic lineage; also recorded: promoted HDPSCs differentiation along the osteogenic lineage
- outgrowth of HDPSCs from dental pulp explants ([1]; 50 mg scaffold, basal media): enhanced the outgrowth
- cell bridge formation between adjacent scaffold particles ([1]; explant culture): promoted cell bridge formation
